# From PubChem BioAssay AID1324 (NMMLSC, 2008)
# Activity calls are given as the source filed them. How the calls were made is not given here.
# Target: glutathione S-transferase (GST-GSH binding)
# Experiment: GST–glutathione interaction disruption – biochemical, multiplex beads, flow cytometry, HPSMTB buffer, profiling panel (AID 1324);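 further: glutathione beads loaded with GST-green fluorescent protein and no fluorescent Bim peptide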
# Settings: multiplex bead flow cytometry, MCF
row,SMILES,EC50
1,NC(=O)c1sc2nc3c(c(-c4ccco4)c2c1N)CCC3,inactive
2,CN1CCN(c2ccc(N)cc2)CC1,inactive

# Same assay, conditions: multiplex bead flow cytometry, MCF, concentration not given here
row,SMILES,percent span inhibition
1,Cc1ccc(OCC(=O)NCc2ccccn2)c(Br)c1,inactive
2,Cc1ccc(CC(=O)OCCNC(=O)c2cccnc2)cc1,inactive
3,Cc1ccc(C)c(Oc2ncnc(N)c2[N+](=O)[O-])c1,inactive
4,CCN(CC)c1ccc(NC(=O)c2ccc(=O)[nH]c2)cc1S(=O)(=O)Nc1ccccc1OC,inactive
5,CCNC(=S)Nc1ccc(OCC)cc1,inactive
6,O=c1[nH]c(SCc2nc3ccccc3c(=O)n2-c2ccccc2C(F)(F)F)nc2ccccc12,inactive
7,Cc1ccc(Nc2nc(CSc3nnc(-c4cccnc4)n3-c3ccccc3C)cs2)cc1,inactive
8,COc1ccc(N2CCN(CCCNC(=O)CCCn3c(=O)[nH]c4ccsc4c3=O)CC2)cc1,inactive
9,O=C(O)CCN1C(=O)/C(=C\c2ccc(-c3nc4ccccc4s3)o2)SC1=S,inactive
10,COc1ccc(CN(C)CC(=O)NC(C)c2ccccc2)c(OC)c1 (stereo unspecified),inactive
11,O=C(O)C1=C[C@H](C2CC2)C[C@H](OCCCCO)O1,inactive
12,Cc1cccn2c(=O)c3cc(C(N)=S)c(=N)n(CCCN4CCOCC4)c3nc12,inactive
13,O=C(Nc1ccccc1N1CCOCC1)c1cccs1,inactive
14,C(=C\c1ccccc1)/CSc1nnc(-c2ccccn2)n1Cc1ccco1,inactive
15,NC(=O)c1c(NC(=O)C2CCCO2)sc2c1CCCCC2 (stereo unspecified),inactive
16,CCOc1ccc(-n2cc(-c3ccc(OC)c(OC)c3)[nH]c2=S)cc1,inactive
17,CN=c1scc(C)n1/N=C/c1ccc(O)c(O)c1O,inactive
18,CC(C)(C)C(=O)NC(NC(=S)Nc1ccc(S(N)(=O)=O)cc1)C(Cl)(Cl)Cl (stereo unspecified),inactive
19,CCc1cccc(CC)c1-n1c(-c2cccnc2)n[nH]c1=S,inactive
20,CCc1ccc(NC(=O)Cc2ccc(OC)cc2)cc1,inactive
21,O=C(/C=C/c1c(F)cccc1Cl)Nc1ccncc1,inactive
22,COc1ccccc1OCc1ccc(C(=O)Nc2ccccc2F)cc1,inactive
23,O=C(NCc1ccccc1)C(=O)Nc1nc(C23CC4CC(CC(C4)C2)C3)cs1,inactive

row,SMILES,percent span inhibition
1,Cc1ccc(NC(=O)C/C(N)=N/OC(=O)c2ccccc2)cc1,inactive
2,CCN(CC)c1ccc(-c2nn3c(-c4cccnc4)nnc3s2)cc1,inactive
3,Fc1ccc(C2=Nc3cccc4cccc(c34)N2)cc1,inactive
4,CCCCN(C(=O)CCC(=O)Nc1cc(C)on1)C(C(=O)NC(C)(C)C)c1cccc(OC)c1OC (stereo unspecified),inactive
5,COc1ccc(C(=O)NC(=S)N2CCNC(=O)C2)cc1Br,inactive
6,COc1cccc(/C=N/NC(=O)c2cc3cc([N+](=O)[O-])ccc3s2)c1O,inactive
7,COc1ccc(N2CCN(C(CNS(=O)(=O)c3ccc4c(c3)OCCO4)c3ccco3)CC2)cc1 (stereo unspecified),inactive
8,CNCc1ccccc1Sc1cc(O)ccc1O,inactive
9,Cc1ccc(-c2cc(C(=O)Nc3ccccc3C)c3ccccc3n2)o1,inactive
10,Cc1nnc2ccc(-c3cccc(NC(=O)c4ccco4)c3)nn12,inactive
11,COc1cccc(C(=O)/C=C/Nc2ccc(S(=O)(=O)Nc3onc(C)c3C)cc2)c1,inactive
12,CC1(C)CC(NC(=O)COc2ccc([N+](=O)[O-])cc2)CC(C)(C)N1,inactive
13,CCC(CC)C(=O)Nc1cccc(SC)c1,inactive
14,CCOC(=O)C1(Cc2cccc(OC)c2)CCN(Cc2cccc(OC)c2OC)CC1,inactive
15,Cc1cc2nn(-c3cccc4ccccc34)nc2cc1N,inactive
16,CC1(C(=O)N(CC(=O)NC2CCCC2)Cc2ccco2)CC(=O)N=C2C=CC=CN21 (stereo unspecified),inactive
17,Cc1cc(N2CCN(C)CC2)nc2ccc(NC(=S)N3CCN(c4cccc(Cl)c4)CC3)cc12,inactive
18,Cc1ccc(-c2cc(C(=O)Nc3cc(C(=O)O)ccc3C)c3ccccc3n2)cc1,inactive
19,CC1=C2C(CCS2(=O)=O)CC2(C1)C(=O)OC(C)(C)OC2=O (stereo unspecified),inactive
20,COc1ccc(NC(=O)c2sccc2SCc2cccc(C(F)(F)F)c2)cc1,inactive
21,CCNC(=S)Nc1cc(OCC)c(NC(=O)c2cccs2)cc1OCC,inactive
22,CCN(C(=O)COC(=O)c1cc(-c2ccc(C)o2)nc2ccccc12)C1CCS(=O)(=O)C1 (stereo unspecified),inactive
23,C#CCOCCOCCOCCNc1nc(N2CCN(C(=O)[C@H](CCCCN)n3cc(CCCC)nn3)CC2)nc(N2CCN(C(=O)[C@H](Cc3ccc(O)cc3)n3cc(CCO)nn3)CC2)n1,inactive

row,SMILES,percent span inhibition
1,O=C(c1cccc(Br)c1)N1CCN(c2cnn(-c3ccccc3)c(=O)c2Cl)CC1,inactive
2,CC(C)CCN1CCN(Cc2cccc3cccnc23)CC1CCO (stereo unspecified),inactive
3,COc1cc(/C=C2\CC/C(=C\c3cc(OC)c(O)c(OC)c3)C2=O)cc(OC)c1O,inactive
4,CNc1ccc(Br)cc(C(=O)/C=C/c2ccc(OC)cc2OC)c1=O,inactive
5,OC(CNC1CCCCC1)COCCOc1ccc(Br)cc1 (stereo unspecified),inactive
6,COc1ccc(CC(=O)Nc2ccc(C(=O)Nc3nccs3)cc2)cc1OC,inactive
7,O=C1C(=O)c2ccc(-c3ccccc3)cc2-c2ccccc21,inactive
8,O=C(N/N=C/c1ccc(O)c(O)c1O)/C(=C/c1ccc([N+](=O)[O-])cc1)NC(=O)c1ccccc1,inactive
9,CCn1c(SCC(=O)Nc2ccc(C)cc2)nnc1-c1ccc(O)cc1,inactive
10,COc1cc(/C=N/NC(=O)c2ccc([N+](=O)[O-])cc2Cl)cc(Br)c1O,inactive
11,CN(C)CCNC(=O)C(=O)C1C(=O)Nc2ccccc21 (stereo unspecified),inactive
12,S=c1[nH]cc(-c2ccccc2)n1-c1ccccc1,inactive
13,CCOc1cc(C2Nc3cccc4cccc(c34)N2)ccc1O,inactive
14,CCc1ccc(NC(=O)CC2NCCNC2=O)cc1 (stereo unspecified),inactive
15,CCOc1cc(CNc2ccc(N(C)C)cc2)cc(Br)c1OCC(=O)NC(C)(C)C,inactive
16,COc1ccc(N2CCN(C(=O)c3cc(=O)[nH]c4ccccc34)CC2)cc1,inactive
17,COc1cc(N=c2ssnc2Cl)cc(OC)c1,inactive
18,Clc1ccc2c(N/N=C/c3ccc(Br)cc3)ccnc2c1,inactive
19,COc1cc(C=Nc2cccc(C)c2)c(O)c([N+](=O)[O-])c1,inactive
20,Cc1ccc(OCc2cn3cccnc3n2)cc1,inactive
21,Fc1ccccc1/C=C1\CCCC2=C1NC(=S)NC2c1ccccc1F (stereo unspecified),inactive
22,CC(C)(C)OC(=O)N1CCN(C(=O)[C@H](Cc2ccc(O)cc2)n2cc(CCO)nn2)CC1,inactive
23,Nc1c(C(=O)NC2CC2)sc2nc3c(c(-c4ccco4)c12)CC/C3=C/c1ccco1,inactive
